Measurements as given in US6046192A, “Phenylethanolaminotetralincarboxamide derivatives” (Kissei Pharmaceutical Co., Ltd., priority 1996, dated 2000).

Key:
β1 -adrenergic receptor = assay: Atrial contraction of isolated rat atrium (β1-adrenergic receptor stimulating activity); conditions: isolated rat atrium (SD male), Magnus method
Protocol: Thus, the compounds of the present invention have a markedly weaker β1 -adrenergic receptor stimulating effect in comparison with the aforementioned β2 -adrenergic receptor stimulating effect.
Action of Drugs on the Atrial Contraction of Isolated Rat Atrium
The atria of SD male rats (350 to 400 g in body weight) were isolated and the experiment was conducted according to the Magnus method. The preparations with a tension of 1 g were exposed to Krebs-Henseleit solution maintained at 37° C. and gassed with a mixture of 95% of oxygen and 5% of carbon dioxide. The atrial contraction was induced isometrically via a pressure transducer and recorded on a rectigram. After addition of the drug, its efficacy was evaluated as drug concentration which increases 20 beats per minute of heart rate (i.e., EC20 value).

ICR mice = assay: Acute toxicity; assay type: in vivo; conditions: female ICR mice, intravenous, 50 mg/kg in saline
Protocol: To 4 female ICR mice of 4 weeks age was administered intravenously 2-[(2S)-2-[[(2R)-2-hydroxy-2-(4-hydroxyphenyl)-ethyl]amino]-1,2,3,4-tetrahydronaphthalen-7-yloxy]-N,N-dimethylacetamide dissolved in saline at dose of 50 mg/kg. No death of animals was observed during 24 hours after the administration.

β2 -adrenergic receptor = target: T1, β2 -adrenergic receptor (Rattus norvegicus, UniProt P10608); assay: Spontaneous contractions of isolated pregnant rat myometrium (β2-adrenergic receptor stimulating activity); conditions: isolated pregnant rat uterus (SD, pregnancy day 21), Magnus method; read-out: EC50 value (activity to relax 50% of the spontaneous contractions of rat myometrium)
T1 construct: longitudinal uterine muscle strips (about 15 mm in length and about 5 mm in width) free from the basal plate were prepared; from tissue; host or cells: longitudinal uterine muscle strips of pregnant SD rats (pregnancy day 21)
Protocol: Thus, the compounds of the present invention have a markedly potent β2 -adrenergic receptor stimulating effect and therefore are remarkably useful as β2 -adrenergic receptor stimulating agents.
Action of Drugs on the Spontaneous Contractions of Isolated Pregnant Rat Myometrium
The uteri of pregnant SD rats (pregnancy day 21) were isolated and longitudinal uterine muscle strips (about 15 mm in length and about 5 mm in width) free from the basal plate were prepared. The experiment was conducted according to the Magnus method. The preparations with a tension of 1 g were exposed to Locke-Ringer solution maintained at 37° C. and gassed with a mixture of 95% of oxygen and 5% of carbon dioxide. Spontaneous contractions of myometrium were induced isometrically via a pressure transducer and recorded on a rectigram. The drug efficacy was evaluated as 50% inhibitory drug concentration (i.e., EC50 value) by comparing the total degree of uterine contraction during 5 minutes before the addition of the drug with the total degree of uterine contraction during 5 minutes after the addition of the drug.

T1 sequence (P10608 whole entry): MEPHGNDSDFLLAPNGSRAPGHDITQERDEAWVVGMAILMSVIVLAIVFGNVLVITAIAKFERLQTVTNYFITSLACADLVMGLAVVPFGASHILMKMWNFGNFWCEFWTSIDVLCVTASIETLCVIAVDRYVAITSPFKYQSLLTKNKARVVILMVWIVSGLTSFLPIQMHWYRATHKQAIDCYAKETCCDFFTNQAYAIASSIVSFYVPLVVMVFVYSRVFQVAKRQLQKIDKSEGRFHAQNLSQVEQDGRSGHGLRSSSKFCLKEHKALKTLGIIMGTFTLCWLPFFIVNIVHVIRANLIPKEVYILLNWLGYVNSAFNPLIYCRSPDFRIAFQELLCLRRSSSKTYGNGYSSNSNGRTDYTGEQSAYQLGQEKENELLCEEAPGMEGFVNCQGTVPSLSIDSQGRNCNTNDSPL

Compound: CN(C)C(=O)COc1ccc2c(c1)C[C@@H](NC[C@H](O)c1ccc(O)cc1)CC2 [2-[(2S)-2-[[(2R)-2-Hydroxy-2-(4-hydroxyphenyl)ethyl]-amino]-1,2,3,4-tetrahydronaphthalen-7-yloxy]-N,N-dimethylacetamide]
- EC20 value (activity to increase rat heart rate 20 beats per minute) (β1 -adrenergic receptor): 1.6×10^-6 molar concentration
- death of animals during 24 hours after the administration (ICR mice): No death
- EC50 (β2 -adrenergic receptor): 15 nM
